Source: ChEMBL document CHEMBL5131542, “Exploring Degradation of Mutant and Wild-Type Epidermal Growth Factor Receptors Induced by Proteolysis-Targeting Chimeras” (J Med Chem, 2022)
Active and inactive are the calls of the source. The rule behind the calls is not given here.

Assays:
[1] = system: OVCAR-8; experiment: Antiproliferative activity against human OVCAR-8 cells expressing wild type EGFR assessed as cell growth inhibition at 1 uM in presence of pictilisib; assay type: functional, cell-based
[2] = system: NCI-H1299; experiment: Antiproliferative activity against human NCI-H1299 cells expressing wild type EGFR assessed as cell growth inhibition at 1 uM in presence of pictilisib; assay type: functional, cell-based
[3] = system: HCC827; experiment: Antiproliferative activity against human HCC827 cells assessed as cell growth inhibition incubated for 3 days by CCK-8 assay; assay type: functional; settings: HCC827, 72 h, time 3 day
[4] = system: von Hippel-Lindau disease tumor suppressor/Epidermal growth factor receptor (Homo sapiens), P00533+P40337 [UNDEFINED MUTATION]; experiment: PROTAC activity at VHL/EGFR Del19 mutant in human HCC827 cells assessed as EGFR degradation treated after 8 hrs under serum starvation condition at 10 to 1000 nM measured after 16 hrs by Western blotting analysis; assay type: cell-based; settings: dose 10-1000 nM
[5] = target: T1, von Hippel-Lindau disease tumor suppressor/Epidermal growth factor receptor (Homo sapiens, UniProt P00533+P40337); experiment: PROTAC activity at VHL/EGFR Del19 mutant in human HCC827 cells; assay type: cell-based
[6] = target: Epidermal growth factor receptor (Homo sapiens, UniProt P00533, L858R); experiment: Binding affinity to human partial length EGFR (R669 to V1011 residues) L858R mutant expressed in bacterial expression system assessed as immobilized ligand binding by competitive binding assay
[7] = target: Epidermal growth factor receptor (Homo sapiens, UniProt P00533); experiment: Binding affinity to human wild type partial length EGFR (R669 to V1011 residues) expressed in bacterial expression system assessed as immobilized ligand binding by competitive binding assay
[8] = system: Protein cereblon/Epidermal growth factor receptor (Homo sapiens), P00533+Q96SW2 [UNDEFINED MUTATION]; experiment: PROTAC activity at CRBN/EGFR Del19 mutant in human HCC827 cells assessed as EGFR degradation treated after 8 hrs under serum starvation condition at 100 nM measured after 16 hrs by Western blotting analysis; assay type: cell-based
[9] = system: Protein cereblon/Epidermal growth factor receptor (Homo sapiens), P00533+Q96SW2 [UNDEFINED MUTATION]; experiment: PROTAC activity at CRBN/EGFR Del19 mutant in human HCC827 cells assessed as EGFR degradation treated after 8 hrs under serum starvation condition at 1 uM measured after 16 hrs by Western blotting analysis; assay type: cell-based
[10] = target: T1, von Hippel-Lindau disease tumor suppressor/Epidermal growth factor receptor; experiment: PROTAC activity at VHL/wild type EGFR in human OVCAR-8 cells assessed as EGFR degradation measured after 24 hrs by Immunoblotting analysis; assay type: cell-based

Sequence of von Hippel-Lindau disease tumor suppressor/Epidermal growth factor receptor (Homo sapiens), P00533+P40337 [UNDEFINED MUTATION] (P00533 whole entry, looked up, stated change not applied): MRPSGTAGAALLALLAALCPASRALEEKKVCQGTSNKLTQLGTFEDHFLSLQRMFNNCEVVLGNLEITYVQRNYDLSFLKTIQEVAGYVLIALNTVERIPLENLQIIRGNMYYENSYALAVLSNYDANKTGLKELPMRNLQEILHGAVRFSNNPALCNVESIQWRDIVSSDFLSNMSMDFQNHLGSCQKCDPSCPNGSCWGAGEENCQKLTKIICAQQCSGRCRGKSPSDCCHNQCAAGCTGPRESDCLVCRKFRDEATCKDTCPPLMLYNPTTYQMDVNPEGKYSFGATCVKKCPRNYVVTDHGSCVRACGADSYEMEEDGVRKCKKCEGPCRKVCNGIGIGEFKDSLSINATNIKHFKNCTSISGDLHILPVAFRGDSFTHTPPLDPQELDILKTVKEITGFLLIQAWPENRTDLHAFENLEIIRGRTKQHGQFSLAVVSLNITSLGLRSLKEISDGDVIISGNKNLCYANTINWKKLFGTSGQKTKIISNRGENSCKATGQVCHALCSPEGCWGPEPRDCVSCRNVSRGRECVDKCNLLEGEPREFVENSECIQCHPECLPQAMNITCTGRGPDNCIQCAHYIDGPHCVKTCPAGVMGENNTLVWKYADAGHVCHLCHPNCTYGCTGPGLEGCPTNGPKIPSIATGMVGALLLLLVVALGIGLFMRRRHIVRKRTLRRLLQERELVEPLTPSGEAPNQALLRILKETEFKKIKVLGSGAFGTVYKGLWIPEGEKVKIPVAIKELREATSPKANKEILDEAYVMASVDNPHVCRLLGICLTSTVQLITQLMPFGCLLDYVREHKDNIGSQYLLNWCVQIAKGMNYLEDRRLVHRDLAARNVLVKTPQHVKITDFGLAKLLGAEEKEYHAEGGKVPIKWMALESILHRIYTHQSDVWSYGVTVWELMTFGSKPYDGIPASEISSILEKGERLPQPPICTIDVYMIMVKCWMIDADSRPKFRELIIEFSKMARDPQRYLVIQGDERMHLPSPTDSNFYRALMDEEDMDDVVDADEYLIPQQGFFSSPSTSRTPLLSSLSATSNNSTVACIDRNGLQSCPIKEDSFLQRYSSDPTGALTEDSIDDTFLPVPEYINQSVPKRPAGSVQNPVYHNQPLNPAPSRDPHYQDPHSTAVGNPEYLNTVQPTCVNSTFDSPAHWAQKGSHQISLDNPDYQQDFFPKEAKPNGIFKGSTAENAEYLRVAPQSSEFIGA
Sequence of von Hippel-Lindau disease tumor suppressor/Epidermal growth factor receptor (Homo sapiens), P00533+P40337 [UNDEFINED MUTATION] (P40337 whole entry, looked up, stated change not applied): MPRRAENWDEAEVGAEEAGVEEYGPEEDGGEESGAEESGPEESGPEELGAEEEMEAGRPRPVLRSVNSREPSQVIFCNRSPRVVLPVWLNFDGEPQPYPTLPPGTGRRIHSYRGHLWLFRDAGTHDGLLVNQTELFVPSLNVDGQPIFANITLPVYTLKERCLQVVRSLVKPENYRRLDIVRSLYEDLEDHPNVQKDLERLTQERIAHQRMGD
Sequence of Protein cereblon/Epidermal growth factor receptor (Homo sapiens), P00533+Q96SW2 [UNDEFINED MUTATION] (P00533 whole entry, looked up, stated change not applied): as the sequence (P00533 whole entry, looked up, stated change not applied) above
Sequence of Protein cereblon/Epidermal growth factor receptor (Homo sapiens), P00533+Q96SW2 [UNDEFINED MUTATION] (Q96SW2 whole entry, looked up, stated change not applied): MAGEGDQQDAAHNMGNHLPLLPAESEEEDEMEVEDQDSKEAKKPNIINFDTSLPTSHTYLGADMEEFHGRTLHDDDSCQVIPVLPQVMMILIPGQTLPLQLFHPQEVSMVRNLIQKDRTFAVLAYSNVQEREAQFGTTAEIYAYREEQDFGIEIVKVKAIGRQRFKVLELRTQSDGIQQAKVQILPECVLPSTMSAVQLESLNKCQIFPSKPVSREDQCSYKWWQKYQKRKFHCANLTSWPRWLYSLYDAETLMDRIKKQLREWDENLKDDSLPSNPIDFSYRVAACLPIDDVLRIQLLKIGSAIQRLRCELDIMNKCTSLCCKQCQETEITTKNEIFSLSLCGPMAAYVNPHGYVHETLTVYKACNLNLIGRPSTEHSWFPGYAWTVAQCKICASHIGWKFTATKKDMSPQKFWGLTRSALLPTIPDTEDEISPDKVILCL
Sequence of Epidermal growth factor receptor (Homo sapiens, UniProt P00533, L858R) (P00533 25-1210 L858R limits assumed): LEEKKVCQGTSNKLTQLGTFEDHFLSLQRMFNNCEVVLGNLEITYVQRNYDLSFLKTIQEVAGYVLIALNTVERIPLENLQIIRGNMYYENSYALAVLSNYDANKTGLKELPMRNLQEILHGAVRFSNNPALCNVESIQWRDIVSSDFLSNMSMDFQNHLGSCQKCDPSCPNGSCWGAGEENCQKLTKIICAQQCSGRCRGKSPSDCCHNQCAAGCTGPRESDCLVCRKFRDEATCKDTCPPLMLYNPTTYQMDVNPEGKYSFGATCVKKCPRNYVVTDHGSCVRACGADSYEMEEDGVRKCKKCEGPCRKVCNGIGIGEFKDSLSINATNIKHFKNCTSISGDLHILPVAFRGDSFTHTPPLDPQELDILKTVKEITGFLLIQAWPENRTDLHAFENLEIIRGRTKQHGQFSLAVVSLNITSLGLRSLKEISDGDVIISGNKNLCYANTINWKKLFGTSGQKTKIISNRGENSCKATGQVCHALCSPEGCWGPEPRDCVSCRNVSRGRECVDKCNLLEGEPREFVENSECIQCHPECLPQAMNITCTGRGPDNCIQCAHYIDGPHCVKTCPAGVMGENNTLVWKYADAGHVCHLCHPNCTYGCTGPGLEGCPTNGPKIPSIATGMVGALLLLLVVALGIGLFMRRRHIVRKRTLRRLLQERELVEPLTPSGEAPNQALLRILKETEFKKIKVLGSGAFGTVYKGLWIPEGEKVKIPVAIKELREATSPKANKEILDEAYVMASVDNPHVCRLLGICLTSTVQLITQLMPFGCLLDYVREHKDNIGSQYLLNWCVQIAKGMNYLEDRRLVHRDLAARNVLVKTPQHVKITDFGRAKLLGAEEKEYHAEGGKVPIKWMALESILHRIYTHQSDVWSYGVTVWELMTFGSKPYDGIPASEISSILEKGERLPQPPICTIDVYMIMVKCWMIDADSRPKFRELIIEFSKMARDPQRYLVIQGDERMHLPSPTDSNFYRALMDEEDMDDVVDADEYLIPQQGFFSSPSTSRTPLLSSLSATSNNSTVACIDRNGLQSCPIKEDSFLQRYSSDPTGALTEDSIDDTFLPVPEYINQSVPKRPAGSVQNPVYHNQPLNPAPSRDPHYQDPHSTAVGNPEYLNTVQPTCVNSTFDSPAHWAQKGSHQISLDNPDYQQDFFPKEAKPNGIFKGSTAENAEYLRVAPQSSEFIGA

Structure (SMILES) | GI50 [3] [nM] | Activity [4] | other results
COc1cc2ncnc(Nc3ccc(F)c(Cl)c3)c2cc1OCCCN1CCN(C(=O)CCCCCCCCCC(=O)N[C@H](C(=O)N2C[C@H](O)C[C@H]2C(=O)NCc2ccc(-c3scnc3C)cc2)C(C)(C)C)CC1 | 230 | – | Activity [1]: Active; Activity [2]: Active
COc1cc2ncnc(Nc3ccc(F)c(Cl)c3)c2cc1OCCCN1CCN(C(=O)CCCCCCCCCCNC(=O)C[C@H](NC(=O)[C@@H]2C[C@@H](O)CN2C(=O)[C@@H](c2cc(C)no2)C(C)C)c2ccc(-c3scnc3C)cc2)CC1 | 250 | – | Activity [1]: Active; Activity [2]: Active
COc1cc2ncnc(Nc3ccc(F)c(Cl)c3)c2cc1OCCCN1CCN(C(=O)CCOCCOCCOCCOCCOCCNc2ccc3c(c2)C(=O)N(C2CCC(=O)NC2=O)C3=O)CC1 (stereo unspecified) | 870 | – | Activity [1]: Active; Activity [2]: Active
COc1cc2ncnc(Nc3ccc(F)c(Cl)c3)c2cc1OCCCN1CCN(C(=O)CCCNC(=O)C[C@H](NC(=O)[C@@H]2C[C@@H](O)CN2C(=O)[C@@H](c2cc(C)no2)C(C)C)c2ccc(-c3scnc3C)cc2)CC1 | 880 | Active | –
COc1cc2ncnc(Nc3ccc(F)c(Cl)c3)c2cc1OCCCN1CCN(C(=O)C[C@H](NC(=O)[C@@H]2C[C@@H](O)CN2C(=O)[C@@H](c2cc(C)no2)C(C)C)c2ccc(-c3scnc3C)cc2)CC1 | 730 | – | –
COc1cc2ncnc(Nc3ccc(F)c(Cl)c3)c2cc1OCCCN1CCN(C(=O)CCCCNC(=O)C[C@H](NC(=O)[C@@H]2C[C@@H](O)CN2C(=O)[C@@H](c2cc(C)no2)C(C)C)c2ccc(-c3scnc3C)cc2)CC1 | 770 | – | –
COc1cc2ncnc(Nc3ccc(F)c(Cl)c3)c2cc1OCCCN1CCN(C(=O)CCCCCCCCCNC(=O)C[C@H](NC(=O)[C@@H]2C[C@@H](O)CN2C(=O)[C@@H](c2cc(C)no2)C(C)C)c2ccc(-c3scnc3C)cc2)CC1 | 590 | Active | –
COc1cc2ncnc(Nc3ccc(F)c(Cl)c3)c2cc1OCCCN1CCN(C(=O)CNC(=O)C[C@H](NC(=O)[C@@H]2C[C@@H](O)CN2C(=O)[C@@H](c2cc(C)no2)C(C)C)c2ccc(-c3scnc3C)cc2)CC1 | 710 | Active | –
COc1cc2ncnc(Nc3ccc(F)c(Cl)c3)c2cc1OCCCN1CCN(C(=O)CCCCCCCCNC(=O)C[C@H](NC(=O)[C@@H]2C[C@@H](O)CN2C(=O)[C@@H](c2cc(C)no2)C(C)C)c2ccc(-c3scnc3C)cc2)CC1 | 460 | Active | –
Cc1ncsc1-c1ccc(CNC(=O)[C@@H]2C[C@@H](O)CN2C(=O)[C@@H](NC(=O)CCCCCCCCCCn2cc(COc3cc4ncnc(Nc5ccc(F)c(Cl)c5)c4cc3NC(=O)/C=C/CN3CCCCC3)nn2)C(C)(C)C)cc1 | – | – | DC50 [5]: 3.6 nM
COc1cc2ncnc(Nc3ccc(F)c(Cl)c3)c2cc1OCCCN1CCN(CCC(=O)NCCCCCCCCOc2cccc3c2C(=O)N(C2CCC(=O)NC2=O)C3)CC1 (stereo unspecified) | 660 | – | Activity [1]: Active; Activity [2]: Active
COc1cc2ncnc(Nc3ccc(F)c(Cl)c3)c2cc1OCCCN1CCN(C(=O)CCCCCNC(=O)C[C@H](NC(=O)[C@@H]2C[C@@H](O)CN2C(=O)[C@@H](c2cc(C)no2)C(C)C)c2ccc(-c3scnc3C)cc2)CC1 | 790 | Active | –
COc1cc2ncnc(Nc3ccc(F)c(Cl)c3)c2cc1OCCCN1CCN(C(=O)CCCCCCCNC(=O)C[C@H](NC(=O)[C@@H]2C[C@@H](O)CN2C(=O)[C@@H](c2cc(C)no2)C(C)C)c2ccc(-c3scnc3C)cc2)CC1 | 610 | Active | –
COc1cc2ncnc(Nc3ccc(F)c(Cl)c3)c2cc1OCCCN1CCN(C(=O)CCNC(=O)C[C@H](NC(=O)[C@@H]2C[C@@H](O)CN2C(=O)[C@@H](NC(=O)C2(F)CC2)C(C)(C)C)c2ccc(-c3scnc3C)cc2)CC1 | 1020 | – | –
COc1cc2ncnc(Nc3ccc(F)c(Cl)c3)c2cc1OCCCN1CCN(C(=O)CCNC(=O)C[C@H](NC(=O)[C@@H]2C[C@@H](O)CN2C(=O)[C@@H](c2cc(C)no2)C(C)C)c2ccc(-c3scnc3C)cc2)CC1 | 780 | Active | –
COc1cc2ncnc(Nc3ccc(F)c(Cl)c3)c2cc1OCCCN1CCN(C(=O)CCOCCOCCOCCOCCOCCNc2ccc3c(c2)C(=O)N(C2CCC(=O)N(C)C2=O)C3=O)CC1 (stereo unspecified) | – | – | Kd [6]: 2.9 nM; Kd [7]: 6.4 nM
COc1cc2ncnc(Nc3ccc(F)c(Cl)c3)c2cc1OCCCN1CCN(CCC(=O)NCCCCCCCCNc2ccc3c(c2)C(=O)N(C2CCC(=O)NC2=O)C3=O)CC1 (stereo unspecified) | – | – | Activity [8]: Active; Activity [9]: Active
Cc1ncsc1-c1ccc(CNC(=O)[C@@H]2C[C@@H](O)CN2C(=O)[C@@H](NC(=O)COCCOCCOc2ccc(-c3ccc4ncnc(Nc5ccc(OCc6cccc(F)c6)c(Cl)c5)c4c3)cc2)C(C)(C)C)cc1 | – | – | DC50 [10]: 39 nM
COc1cc2ncnc(Nc3ccc(F)c(Cl)c3)c2cc1OCCCN1CCN(C(=O)CCOCCOCCOCCOCCNc2ccc3c(c2)C(=O)N(C2CCC(=O)NC2=O)C3=O)CC1 (stereo unspecified) | 930 | – | –
